PMC6472190, “Enhanced Liver Targeting of Camptothecin via Conjugation with Deoxycholic Acid” (Molecules, 2019)
Read-outs that look alike come from different tables or passages of the source.

Assays:
[1] = Stability in fresh rat plasma; format: in vitro ADME; details: 10 μM, 3 h
Description: (§1) The stability of G2 and CPT was assessed in SGF, SIF and fresh rat plasma. SGF and SIF were prepared according to a previous report with slight modifications. Briefly, 0.3% (w/v) purified pepsin, 2 g of NaCl and 7 mL of HCl (12 M) were dissolved in 1000 mL of distilled water to obtain SGF (PH 1.2). To make SIF (PH 6.8), 6.8 g of KH2PO4, 1.0% (w/v) purified pancreatin and 77 mL of NaOH (0.2 M) were dissolved in 1000 mL of distilled water. SGF, SIF and rat plasma containing 10 μM G2 or CPT were incubated at 37 °C. At scheduled time points (0, 5, 10, 20, 30, 60, 90, 120, 180 min), 100 μL samples were collected and reaction was quenched immediately by adding 400 μL of ice cold acetonitrile. The mixture was votexed 2 min and centrifuged at 12000 rpm for 10 min. Then, the supernatant was filtered with a filter (0.22 μm) and detected by HPLC.
(§2) To determine the concentration of G2 and CPT in the stability investigation, a C18 (5 μm, 4.6 × 250 mm, Elite, Dalian, China) reverse-phase column was used. The chromatographic separation was performed on isocratic elution with acetonitrile-0.1% formic acid (80:20, v/v) and acetonitrile-0.1% formic acid (60:40, v/v) for G2 and CPT, respectively. Other conditions were the same as cell model.

[2] = tested on: HepG2 spheroids; assay: Cellular uptake in HepG2 3D spheroid cell model with deoxycholic acid pretreatment; format: cell-based, human; details: HepG2 3D model
Description: The liquid overlay method was employed for the culturing of HepG2 spheroids as described previously. Cells reached logarithmic growth phase were digested by trypsin then centrifuged. The cell number was counted using a hemocytomete and cells were diluted in growth medium to a density of 1 × 10^4 cells/mL. Spheroids were seeded by pipetting 2 mL of the cell suspension into each well of a 6-well ultra-low attachment (ULA) plates (Corning®, Wujiang, China) and incubated for 3 days.
After HepG2 spheroids were prepared as 3.3, they were transferred into 4 mL centrifuge tube and washed twice with HBSS. Then, the spheroids were resuspended with deoxycholic acid at different concentrations and seeded into the 6-well ULA plates again. After being cultured in an incubator for 0.5 h at 37 °C, the spheroids were transferred into 4 mL centrifuge tube and washed twice with HBSS to remove the deoxycholic acid. Then, they were resuspended with 10 μM G2 or CPT and seeded into the 6-well ULA plates. After being cultured in an incubator for 2 h at 37 °C, the spheroids were transferred into 4 mL centrifuge tube and washed three times with HBSS. […]
(§3) Both G2 and CPT were measured by HPLC analysis, which was performed using a Shimadzu HPLC system (Shimadzu, Kyoto, Japan). […] The column was maintained at 30 °C and the absorbance detector wavelength was 363 nm. […]

[3] = Stability in simulated gastric fluid (SGF); format: in vitro ADME; details: 3 h
Description: as §1, §2

[4] = In vivo body distribution and pharmacokinetics after oral administration; set-up: species or system Kunming mice; details: male, Kunming, mouse
Description: For body distribution investigations, 80 male Kunming mice (weight, 18–22 g; age, 6–8 weeks) were used. The animal experiments in this study were performed under the guidance of the care and use of laboratory animals in Zhejiang University of Technology, Hangzhou, China, and conformed to the National Institutes of Health Guide for Care and Use of Laboratory Animals (Publication No. 85-23). After fasting overnight, mice were received a single dose of G2 or CPT (30 mg/kg, calculated as CPT) suspension by gavage. At desired time (0.5, 1, 2, 4, 6, 8, 12 h), animals were sacrificed. Their blood samples were collected by eyeball removal and immediately centrifuged to separate plasma. The organs (heart, liver, spleen, lung, kidney) were removed and weighed before homogenization. And the plasma and tissue homogenate samples were stored at −80 °C until analysis.
For determination of the compound concentration, 200 μL methanol and 100 μL acetonitrile were added to 100 μL plasma or tissue homogenate to precipitate protein, and 5 μL IS (2 μM) was also added. Mixtures were votexed for 2 min and centrifuged at 12,000 rpm for 10 min at 4 °C. Then, supernatant was transferred to a new tube and evaporated by an EZ-2 personal solvent evaporator (Genevac, Suffolk, UK). Finally, 50 μL of 50% acetonitrile (v/v) was added to re-dissolve the samples. After centrifuged at 13,000 rpm for 10 min, the supernatant was used for HPLC analysis.
To determine G2 and CPT concentration in plasma and tissue homogenate, an Inertsil ODS-SP C18 column (5 μm, 4.6 × 250 mm; GL Sciences) was used. The mobile phase was made up of acetonitrile (A) and 0.1% formic acid (B). CPT was separated by an isocratic elution with 35:65 (v/v) A:B. A gradient eluant ((A:B) 0–3 min: 35:65; 3–8 min: from 35:65 to 80:20; 8–20 min: 80:20; 20–21 min: from 80:20 to 35:65; 21–25 min: 35:65) was used to separate G2. Other conditions were the same as cell model.
The pharmacokinetic analysis using a non-compartmental model with the PKSolver pharmacokinetic software (China Pharmaceutical University, Nanjing, China) was conducted to calculate the key parameters of G2 and CPT. In order to evaluate whether the conjugate had the trend of liver targeting, liver targeting index (LTI) was calculated by Equation (1) below:LTI = AUC0–t’ in liver/AUC0–t in plasma (1) where AUC0–t’ in liver is the AUC0–t of drug in liver and AUC0–t in plasma is the AUC0–t of drug in plasma. All the data were presented as mean ± SD. Statistical analysis were performed by Student’s t-test using the SPSS 22.0 statistical software program (IBM company, Denver, CO, USA), and p < 0.05 was used as the criterion for statistical significant.

[5] = Stability in simulated intestinal fluid (SIF); format: in vitro ADME; details: SIF pH 6.8, 10 μM, 37 °C, 3 h
Description: as §1, §2

[6] = tested on: HepG2 cells; assay: Cellular uptake in HepG2 2D cell model with deoxycholic acid pretreatment; format: cell-based, human; details: HepG2 2D model, deoxycholic acid 0.5 h, then 10 μM compound 2 h
Description: Cellular uptake of G2 and CPT into 2D HepG2 cell model was performed as described previously with slight modifications. […] Then, cells were cultured in an incubator at 37 °C. After reached 80% confluence, cell monolayers were pretreated with deoxycholic acid at different concentrations for 0.5 h. Next, the inhibitor of deoxycholic acid was removed and cells were washed twice with Hank’s balanced salt solution (HBSS). After 2 h incubation with 10 μM G2 or CPT, cells were washed three times with HBSS and digested with 200 μL of trypsin for 2 min to obtain single cell suspensions. Next, the cells were washed three times with cold HBSS and 250 μL of HBSS was added to resuspend the pellets. Then, the cells were lysed by freeze-thaw three times and sonicated for 10 min. […] The compound concentration was calculated by the corresponding standard curve. The protein concentration of the supernatant was determined by the Bradford method based on a standard curve made by desired concentrations of bovine serum albumin. The cellular uptake was presented as the quantity of G2 or CPT associated with 1 mg of cellular protein [32, 33].
as §3

[7] = tested on: HepG2 cells; assay: Competitive inhibition of antitumor activity (MTT assay) with deoxycholic acid pretreatment; details: for effect of deoxycholic acid pretreatment on cytotoxicity: HepG2, 1 μM deoxycholic acid 0.5 h, then 1 μM compound 48 h; for viability at 1 µM: Homo sapiens
Description: After reaching logarithmic growth phase, HepG2 cells were passaged and 100 μL of the cell suspension was seeded into 96-well plates at a density of 5 × 10^4 cells/mL, then cells were cultured in an incubator (Thermo Fisher Scientific, Marietta, Ohio, USA) at 37 °C. After reached 80% confluence, cell monolayers were firstly incubated with or without 1 μM deoxycholic acid for 0.5 h. […] Next, cells were further incubated at 37 °C for 48 h. Then 20 μL of MTT reagent (5 mg/mL in PBS) was added and cells were incubated for another 4 h at 37 °C to allow MTT to be metabolized into formazan. Finally, the media was tapped out and 150 μL of DMSO was added to each well to dissolve the formazan crystals. After mixing, the absorbance was quantified at 490 nm using an ELISA Plate Reader (infinite M200 Pro, TECAN, Grodig, Salzburg, Austria).

[8] = heart, po, 30 mg/kg, mice, oral 30 mg/kg calculated as CPT
[9] = kidney, po, 30 mg/kg, mice, oral 30 mg/kg calculated as CPT
[10] = liver, po, 30 mg/kg, mice, oral 30 mg/kg calculated as CPT
[11] = lung, po, 30 mg/kg, mice, oral 30 mg/kg calculated as CPT
[12] = plasma, po, 30 mg/kg, mice, oral 30 mg/kg calculated as CPT
[13] = spleen, po, 30 mg/kg, mice, oral 30 mg/kg calculated as CPT

CC[C@@]1(O)C(=O)OCc2c1cc1n(c2=O)Cc2cc3ccccc3nc2-1 [CPT, Camptothecin]
remaining after incubation in rat plasma ([1]; fresh rat plasma, 37 °C): 24.4%
effect of deoxycholic acid on cellular uptake ([2]; deoxycholic acid 0.5 h, then 10 μM compound 2 h): no distinct effect
degraded rate after incubation in SGF ([3]; SGF pH 1.2, 10 μM, 37 °C): 37.9%
MRT inf ([4]; heart, po, 30 mg/kg, heart, mice, oral 30 mg/kg calculated as CPT, read-out: MRT0–∞): 6.35 ± 2.71 h
AUC(0-inf) [4, 8]: 3.64 ± 1.61 µM·h
AUC(0-t) [4, 8]: 2.86 ± 0.983 µM·h
Cmax [4, 8]: 954 ± 207 nM
Tmax [4, 8]: 0.6 ± 0.2 h
MRT inf ([4]; kidney, po, 30 mg/kg, kidney, mice, oral 30 mg/kg calculated as CPT, read-out: MRT0–∞): 5.32 ± 0.46 h
AUC(0-inf) [4, 9]: 5.45 ± 1.19 µM·h
AUC(0-t) [4, 9]: 4.83 ± 1.04 µM·h
Cmax [4, 9]: 1330 ± 218 nM
Tmax [4, 9]: 0.8 ± 0.245 h
Kp ([4]; liver and plasma, mice, oral 30 mg/kg calculated as CPT, read-out: liver targeting index (LTI) = AUC0–t in liver/AUC0–t in plasma): 4.84
MRT inf ([4]; liver, po, 30 mg/kg, liver, mice, oral 30 mg/kg calculated as CPT, read-out: MRT0–∞): 4.26 ± 0.38 h
AUC(0-inf) [4, 10]: 7.46 ± 1.54 µM·h
AUC(0-t) [4, 10]: 6.95 ± 1.32 µM·h
Cmax [4, 10]: 2080 ± 243 nM
Tmax [4, 10]: 1 h
MRT inf ([4]; lung, po, 30 mg/kg, lung, mice, oral 30 mg/kg calculated as CPT, read-out: MRT0–∞): 7.25 ± 1.77 h
AUC(0-inf) [4, 11]: 12.4 ± 4.43 µM·h
AUC(0-t) [4, 11]: 9.8 ± 2.59 µM·h
Cmax [4, 11]: 1640 ± 325 nM
Tmax [4, 11]: 1.2 ± 0.4 h
MRT inf ([4]; plasma, po, 30 mg/kg, plasma, mice, oral 30 mg/kg calculated as CPT, read-out: MRT0–∞): 3.22 ± 0.578 h
AUC(0-inf) [4, 12]: 1.68 ± 0.252 µM·h
AUC(0-t) [4, 12]: 1.56 ± 0.26 µM·h
Cmax [4, 12]: 465 ± 84 nM
Tmax [4, 12]: 0.5 h
MRT inf ([4]; spleen, po, 30 mg/kg, spleen, mice, oral 30 mg/kg calculated as CPT, read-out: MRT0–∞): 6.96 ± 2.95 h
AUC(0-inf) [4, 13]: 9.29 ± 2.53 µM·h
AUC(0-t) [4, 13]: 7.56 ± 1.72 µM·h
Cmax [4, 13]: 1530 ± 195 nM
Tmax [4, 13]: 0.9 ± 0.2 h
degraded after incubation in SIF [5]: 16.1%
effect of deoxycholic acid pretreatment on uptake [6]: no obvious change
effect of deoxycholic acid pretreatment on cytotoxicity [7]: no distinct effects

CC[C@@]1(OC(=O)COC(=O)CC[C@@H](C)[C@H]2CC[C@H]3[C@@H]4CC[C@@H]5C[C@H](O)CC[C@]5(C)[C@H]4C[C@H](O)[C@]23C)C(=O)OCc2c1cc1n(c2=O)Cc2cc3ccccc3nc2-1 [G2, CPT-20 (S)-O-acetate-deoxycholic acid]
remaining after incubation in rat plasma ([1]; rat, plasma): 42.3%
decrease of cellular uptake compared to deoxycholic acid-free group ([2]; pretreatment with 200 μM deoxycholic acid 0.5 h, 10 μM compound 2 h): 66.4%
degraded rate after incubation in SGF ([3]; 10 μM, pH 1.2): 15.0%
AUC0–t in liver relative to CPT ([4]; in vivo, po): 2.31 fold
increase of liver targeting index in comparison to CPT ([4]; in vivo, po): 1.67 fold
Kp ([4]; in vivo, po, 30 mg/kg): 8.07
MRT inf ([4]; in vivo, po, 30 mg/kg, MRT0–∞): 4.36 ± 0.645 h
effect of deoxycholic acid pretreatment on cytotoxicity [7]: markedly reduced
viability at 1 µM ([7]; HepG2, read-out: cell viability, HepG2, 1 μM compound 48 h, after pretreatment with 1 μM deoxycholic acid for 0.5 h): 71.1%
viability at 1 µM ([7]; HepG2, read-out: cell viability, HepG2, 1 μM compound 48 h, without deoxycholic acid pretreatment): 51.3%
